Experimental data as given in patent US20150087686A1, “CRYSTALLINE FORMS OF SAXAGLIPTIN” (priority 2012, published 2015).
Where a name gives a salt, the structure may show the parent alone. Each block holds one compound with its values, some of them ahead of it.

Columns and labels:
Format in all cases: physicochemical
[1] = Crystal form stability at room temperature (transformation to H2-1); details: H0.75-3: after one night
Text: WO20100115974 discloses three forms of saxagliptin hydrochloride (I-S, HT-S, IV-S) but with a water content of not more than 1.5% by weight. […] On the other hand, the saxagliptin hydrochloride dihydrate H2-1 is stable. Unfortunately, it is difficult to prepare it in pure form by an industrial process which could be reproducible at industrial scale.

[2] = Solubility and stability in water at room temperature; details: for Solubility in water: volumes of water in which the form is soluble / Solubility in water compared with saxagliptin HCl dihydrate H2-1: room temperature
[3] = Chemical stability at 60° C.-37% RH (amidine impurities by HPLC-MS); details: for Color of the solid form after storage: after 1 week
Description: (§1) Crystalline and chemical stability at 60° C.-37% RH: saxagliptin crystalline form I and the known saxagliptin crystalline forms H-1, H2-1 were stored at 60° C. with 37% relative humidity (RH). The samples were analyzed by XRPD and HPLC-MS to check crystalline transformation and chemical degradation.
(§2) Crystalline and chemical stability at 60° C.—37% RH: Saxagliptin crystalline forms H-1, H2-1 and A were stored at 60° C. with 37% RH. The samples were analyzed by XRPD and HPLC-MS to check crystalline transformation and chemical degradation.

[4] = Crystalline stability at 60° C.-37% RH (XRPD); details: stored at 60° C. with 37% RH
Description: as §1, with “degradation. […] However, chemical degradations were observed (see Table 6 below).” for “degradation.”
as §2

Compound: N#C[C@@H]1C[C@@H]2C[C@@H]2N1C(=O)[C@@H](N)C12CC3CC(CC(O)(C3)C1)C2 [Form H0.75-3, saxagliptin hydrochloride]
Crystal form stability (transformation to saxagliptin hydrochloride dihydrate H2-1) ([1]; hydrochloride): transforms to saxagliptin hydrochloride dihydrate H2-1

Compound: N#C[C@@H]1C[C@@H]2C[C@@H]2N1C(=O)[C@@H](N)C12CC3CC(CC(O)(C3)C1)C2 [Form H2-1, saxagliptin hydrochloride dihydrate, reference compound]
Solubility in water: volumes of water in which the form is soluble [2]: 5 volumes of water
Crystal form stability (transformation to saxagliptin hydrochloride dihydrate H2-1) ([1]; hydrochloride dihydrate): stable

Δ variation amidine Impurity % (HPLC-MS), impurity (A) ([3]; 16 h (Table 6)): 0.64% (A)
Δ variation amidine Impurities A and B % (HPLC-MS), impurity (A) ([3]; 16 h (Table 7)): 0.6% (A)
Δ variation amidine Impurity % (HPLC-MS), impurity (A) ([3]; 168 h (Table 6)): 2.68%
Δ variation amidine Impurity % (HPLC-MS), impurity (B) ([3]; 168 h (Table 6)): 2.21%
Δ variation amidine Impurities A and B % (HPLC-MS), impurity (A) ([3]; 168 h (Table 7)): 2.7%
Δ variation amidine Impurities A and B % (HPLC-MS), impurity (B) ([3]; 168 h (Table 7)): 2.2%
Δ variation amidine Impurity % (HPLC-MS), impurity (A) ([3]; 184 h (Table 6)): 2.86% (A) +
Δ variation amidine Impurity % (HPLC-MS), impurity (B) ([3]; 184 h (Table 6)): 2.33% (B)
Color of the solid form after storage [3]: became yellowish
Compound: N#C[C@@H]1C[C@@H]2C[C@@H]2N1C(=O)[C@@H](N)C12CC3CC(CC(O)(C3)C1)C2 [Form H-1, (1S,3S,5S)-2-[(2S)-2-amino-2-(3-hydroxy-1-adamantyl)acetyl]-2-azabicyclo[3.1.0]hexane-3-carbonitrile]
Crystalline transformation (XRPD) [4]: No crystalline transformations were observed

Compound: Cl.N#C[C@@H]1C[C@@H]2C[C@@H]2N1C(=O)[C@@H](N)C12CC3CC(CC(O)(C3)C1)C2.O.O=C(O)CO [Form II, saxagliptin HCl glycolic acid cocrystal (1:1) monohydrate]
Solubility in water (in words, description) [2]: quite soluble in water
Solubility in water compared with saxagliptin HCl dihydrate H2-1 [2]: same solubility
Solubility in water: volumes of water in which the form is soluble [2]: 5 volumes of water

Compound: Cl.N#C[C@@H]1C[C@@H]2C[C@@H]2N1C(=O)[C@@H](N)C12CC3CC(CC(O)(C3)C1)C2.NC(N)=O.NC(N)=O.NC(N)=O [Form IV, saxagliptin HCl.urea cocrystal (1:3)]
Solubility in water (in words, description) [2]: very soluble in water
Solubility in water compared with saxagliptin HCl dihydrate H2-1 [2]: more soluble
Solubility in water: volumes of water in which the form is soluble [2]: approximately 2.5 volumes of water

Compound: N#C[C@@H]1C[C@@H]2C[C@@H]2N1C(=O)[C@@H](N)C12CC3CC(CC(O)(C3)C1)C2 [Form P-5, saxagliptin hydrochloride]
Crystal form stability (transformation to saxagliptin hydrochloride dihydrate H2-1) ([1]; hydrochloride): not very stable

Compound: N#C[C@@H]1C[C@@H]2C[C@@H]2N1C(=O)[C@@H](N)C12CC3CC(CC(O)(C3)C1)C2 [HT-S, saxagliptin hydrochloride]
Crystal form stability (transformation to saxagliptin hydrochloride dihydrate H2-1) ([1]; hydrochloride): not very stable

Compound: N#C[C@@H]1C[C@@H]2C[C@@H]2N1C(=O)[C@@H](N)C12CC3CC(CC(O)(C3)C1)C2 [I-S, saxagliptin hydrochloride]
Crystal form stability (transformation to saxagliptin hydrochloride dihydrate H2-1) ([1]; hydrochloride): not very stable

Compound: N#C[C@@H]1C[C@@H]2C[C@@H]2N1C(=O)[C@@H](N)C12CC3CC(CC(O)(C3)C1)C2 [IV-S, saxagliptin hydrochloride]
Crystal form stability (transformation to saxagliptin hydrochloride dihydrate H2-1) ([1]; hydrochloride): not very stable

Solubility in water (in words, description) [2]: soluble in water
Solubility in water compared with saxagliptin HCl dihydrate H2-1 [2]: solubility similar
Solubility in water: volumes of water in which the form is soluble [2]: approximately 4 volumes of water
Compound: saxagliptin HCl.malonic acid cocrystal (3:2) hydrate [Form III]

Solubility in water (in words, description) [2]: soluble in water
Solubility in water ([2]; 20 vol. in water at room temperature (20-25° C.)): soluble
Stability in water (reprecipitation) ([2]; 20 vol. in water at room temperature, after 24 h): reprecipitation was not observed
Degradation rate / stability compared with free base H-1 and hydrochloride H2-1 [3]: much lower
Δ variation amidine Impurity % (HPLC-MS), impurity (A) ([3]; 16 h (Table 6)): 0.08% (A)
Δ variation amidine Impurity % (HPLC-MS), impurity (A) ([3]; 168 h (Table 6)): 0.38% (A)
Δ variation amidine Impurity % (HPLC-MS), impurity (A) ([3]; 184 h (Table 6)): 0.40% (A)
Color of the solid form after storage [3]: remained white
Compound: saxagliptin HCl.saxagliptin cocrystal (1:1) hydrate [Form I]
Crystalline transformation (XRPD) [4]: No crystalline transformations were observed
